TGI data for 18 molecules are collected here from PubChem BioAssay (NCI).

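Growth conditions: 96-well plates. Treatment: test compound, 48 hours, 5 concentrations. Analysis: linear interpolation between bracketing concentrations; unreached endpoints set to highest concentration. TGI denotes the concentration required for complete inhibition of growth.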

The subject of one assay is HCC-2998 colon. Nature of the assay: NCI anticancer screen, dose series, 48 h.
With `c1ccc2c(c1)C1CCCCCC21N1CCOCC1` (configuration not stated), the TGI was above 100 µM.

Regarding `O=C(CSc1nnc(Cc2ccccc2)o1)Nc1ccccc1`, the TGI is above 100 µM.

Consider `CC(=O)C1C(=O)C(=O)N(c2cccc([N+](=O)[O-])c2)C1=O` (configuration not stated), for which the TGI is above 100 µM.

Turning to `Cc1ccc(/C=C/C(=O)C(C)(C)CN2CCCCC2)cc1`, the TGI amounted to 28.8 µM.

Regarding `CC(=O)C(CN(CC(C)C)CC(C)C)C(c1ccccc1)c1c(O)c2ccccc2oc1=O` (configuration not stated), the TGI was above 100 µM.

In turn, `CC1(C)OC(=O)C(C#N)=C1/C=C/c1coc2ccc(Cl)cc2c1=O` displayed a TGI above 100 µM.

For a further assay, the system named is UO-31 renal. Nature of the assay: NCI anticancer screen, dose series, 48 h.
Molecule `COc1cccc(NC(=O)CSc2nnc(-c3ccc(NC(C)=O)cc3)o2)c1` registered a TGI above 100 µM.

In turn, `Clc1ccc(Nc2nc3ccccc3nc2-c2cccs2)cc1Cl` had a TGI above 100 µM.

`CCn1c2ccccc2c2ccc3c(c21)C(=O)C=CC3=O` showed a TGI of 21.6 µM.

The molecule `O=c1nc(NC2CCCCO2)ccn1CCO` (configuration not stated) came in with a TGI above 100 µM.

On to `COC(=O)c1onc(-c2c(OC)cc(OC)cc2OC)c1C(=O)OC`, for which the TGI is above 100 µM.

As for `CCCP1(=O)C=C(C)C(=C(Cl)Cl)C(C)=C1` (configuration not stated), the TGI was above 100 µM.

`COc1cc(C2SCC(=O)N2c2cccc(Cl)c2)cc(OC)c1OC` (configuration not stated) gave a TGI above 100 µM.

`COC1/C=C/C(C)C(C(C)C(OC)C(C)CCC(=O)C(C)C(C/C=C/N(C)C=O)OC)OC(=O)C=CC2OC2(C)CC(OC)C(OC)C2=CC(=O)O[C@@H](C(C)C(OC)CC(OC)/C=C/C(C)C(O)C1)[C@H]2O` (some centres not stated) registered a TGI of 0.00831 µM.

`CCCCCCCOc1ccc(/C=C\c2cc[n+](CCCCCCCC[n+]3ccc(/C=C\c4ccc(OCCCCCCC)cc4)cc3)cc2)cc1` gave a TGI of 41.2 µM.

`NC(N)=NCCCC(NC(=O)c1cccc2c(=O)c3ccccc3[nH]c12)C(=O)O` (configuration not stated) showed a TGI above 100 µM.

`c1ccc2c(c1)C1CCCCCC21N1CCOCC1` (configuration not stated) had a TGI above 100 µM.

For `O=C(CSc1nnc(Cc2ccccc2)o1)Nc1ccccc1`, the TGI was above 100 µM.

`CC(=O)C1C(=O)C(=O)N(c2cccc([N+](=O)[O-])c2)C1=O` (configuration not stated) yielded a TGI above 100 µM.

`Cc1ccc(/C=C/C(=O)C(C)(C)CN2CCCCC2)cc1` showed a TGI of 22 µM.

Molecule `O=C1OC(Cc2ccccc2)(N2CCCC2=O)C1c1ccccc1` (configuration not stated) showed a TGI above 100 µM.

In turn, `CC1(C)OC(=O)C(C#N)=C1/C=C/c1coc2ccc(Cl)cc2c1=O` had a TGI of 83.6 µM.

For another assay, the system named is CCRF-CEM leukemia. In words: NCI anticancer screen, dose series, 48 h.
Turning to `COc1cccc(NC(=O)CSc2nnc(-c3ccc(NC(C)=O)cc3)o2)c1`, the TGI was above 100 µM.

Molecule `Clc1ccc(Nc2nc3ccccc3nc2-c2cccs2)cc1Cl` came in with a TGI above 100 µM.

As to `CCn1c2ccccc2c2ccc3c(c21)C(=O)C=CC3=O`, the TGI was above 100 µM.

In the case of `O=c1nc(NC2CCCCO2)ccn1CCO` (configuration not stated), the TGI was above 100 µM.

`COC(=O)c1onc(-c2c(OC)cc(OC)cc2OC)c1C(=O)OC` showed a TGI above 100 µM.

Regarding `CCCP1(=O)C=C(C)C(=C(Cl)Cl)C(C)=C1` (configuration not stated), the TGI was above 100 µM.

In turn, `COc1cc(C2SCC(=O)N2c2cccc(Cl)c2)cc(OC)c1OC` (configuration not stated) showed a TGI of 91.2 µM.

Molecule `COC1/C=C/C(C)C(C(C)C(OC)C(C)CCC(=O)C(C)C(C/C=C/N(C)C=O)OC)OC(=O)C=CC2OC2(C)CC(OC)C(OC)C2=CC(=O)O[C@@H](C(C)C(OC)CC(OC)/C=C/C(C)C(O)C1)[C@H]2O` (some centres not stated) gave a TGI above 1.24 µM.

Take `CCCCCCCOc1ccc(/C=C\c2cc[n+](CCCCCCCC[n+]3ccc(/C=C\c4ccc(OCCCCCCC)cc4)cc3)cc2)cc1`: the TGI is above 100 µM.

Regarding `NC(N)=NCCCC(NC(=O)c1cccc2c(=O)c3ccccc3[nH]c12)C(=O)O` (configuration not stated), the TGI is above 100 µM.

As to `c1ccc2c(c1)C1CCCCCC21N1CCOCC1` (configuration not stated), the TGI is above 100 µM.

`COc1cccc(OC)c1C(=O)OCc1ccccc1` returned a TGI above 100 µM.

On to `O=C(CSc1nnc(Cc2ccccc2)o1)Nc1ccccc1`, for which the TGI was above 100 µM.

Molecule `CC(=O)C1C(=O)C(=O)N(c2cccc([N+](=O)[O-])c2)C1=O` (configuration not stated) gave a TGI above 100 µM.

In the case of `Cc1ccc(/C=C/C(=O)C(C)(C)CN2CCCCC2)cc1`, the TGI is 10.4 µM.

The molecule `O=C1OC(Cc2ccccc2)(N2CCCC2=O)C1c1ccccc1` (configuration not stated) returned a TGI above 100 µM.

`CC1(C)OC(=O)C(C#N)=C1/C=C/c1coc2ccc(Cl)cc2c1=O` had a TGI of 87 µM.

In the next assay the test system is HCT-15 colon. In words: NCI anticancer screen, dose series, 48 h.
Take `COc1cccc(NC(=O)CSc2nnc(-c3ccc(NC(C)=O)cc3)o2)c1`: the TGI is above 100 µM.

In turn, `Clc1ccc(Nc2nc3ccccc3nc2-c2cccs2)cc1Cl` yielded a TGI above 100 µM.

The molecule `CCn1c2ccccc2c2ccc3c(c21)C(=O)C=CC3=O` registered a TGI of 25.7 µM.

As to `O=c1nc(NC2CCCCO2)ccn1CCO` (configuration not stated), the TGI was above 100 µM.

In the case of `COC(=O)c1onc(-c2c(OC)cc(OC)cc2OC)c1C(=O)OC`, the TGI is above 100 µM.

For `CCCP1(=O)C=C(C)C(=C(Cl)Cl)C(C)=C1` (configuration not stated), the TGI was above 100 µM.

As for `COc1cc(C2SCC(=O)N2c2cccc(Cl)c2)cc(OC)c1OC` (configuration not stated), the TGI was above 100 µM.

In the case of `CCCCCCCOc1ccc(/C=C\c2cc[n+](CCCCCCCC[n+]3ccc(/C=C\c4ccc(OCCCCCCC)cc4)cc3)cc2)cc1`, the TGI came out at 34.1 µM.

In turn, `NC(N)=NCCCC(NC(=O)c1cccc2c(=O)c3ccccc3[nH]c12)C(=O)O` (configuration not stated) showed a TGI above 100 µM.

`c1ccc2c(c1)C1CCCCCC21N1CCOCC1` (configuration not stated) gave a TGI above 100 µM.

`COc1cccc(OC)c1C(=O)OCc1ccccc1` yielded a TGI above 100 µM.

`O=C(CSc1nnc(Cc2ccccc2)o1)Nc1ccccc1` gave a TGI above 100 µM.

As for `CC(=O)C1C(=O)C(=O)N(c2cccc([N+](=O)[O-])c2)C1=O` (configuration not stated), the TGI is above 100 µM.

The molecule `Cc1ccc(/C=C/C(=O)C(C)(C)CN2CCCCC2)cc1` gave a TGI of 20.1 µM.

Molecule `CC(=O)C(CN(CC(C)C)CC(C)C)C(c1ccccc1)c1c(O)c2ccccc2oc1=O` (configuration not stated) came in with a TGI above 100 µM.

In turn, `CC1(C)OC(=O)C(C#N)=C1/C=C/c1coc2ccc(Cl)cc2c1=O` yielded a TGI of 87.2 µM.

A further assay deals with SF-539 CNS. In words: NCI anticancer screen, dose series, 48 h.
Take `Clc1ccc(Nc2nc3ccccc3nc2-c2cccs2)cc1Cl`: the TGI was above 100 µM.

As to `CCn1c2ccccc2c2ccc3c(c21)C(=O)C=CC3=O`, the TGI turned out to be 44 µM.

The molecule `O=c1nc(NC2CCCCO2)ccn1CCO` (configuration not stated) displayed a TGI above 100 µM.

Molecule `CCCP1(=O)C=C(C)C(=C(Cl)Cl)C(C)=C1` (configuration not stated) had a TGI above 100 µM.

`COc1cc(C2SCC(=O)N2c2cccc(Cl)c2)cc(OC)c1OC` (configuration not stated) had a TGI above 100 µM.

Turning to `COC1/C=C/C(C)C(C(C)C(OC)C(C)CCC(=O)C(C)C(C/C=C/N(C)C=O)OC)OC(=O)C=CC2OC2(C)CC(OC)C(OC)C2=CC(=O)O[C@@H](C(C)C(OC)CC(OC)/C=C/C(C)C(O)C1)[C@H]2O` (some centres not stated), the TGI came out at 0.00742 µM.

Take `CCCCCCCOc1ccc(/C=C\c2cc[n+](CCCCCCCC[n+]3ccc(/C=C\c4ccc(OCCCCCCC)cc4)cc3)cc2)cc1`: the TGI was above 100 µM.

The molecule `c1ccc2c(c1)C1CCCCCC21N1CCOCC1` (configuration not stated) returned a TGI above 100 µM.

`COc1cccc(OC)c1C(=O)OCc1ccccc1`: the TGI was above 100 µM.

As for `O=C(CSc1nnc(Cc2ccccc2)o1)Nc1ccccc1`, the TGI is above 100 µM.

Consider `CC(=O)C1C(=O)C(=O)N(c2cccc([N+](=O)[O-])c2)C1=O` (configuration not stated), for which the TGI is above 100 µM.

For `Cc1ccc(/C=C/C(=O)C(C)(C)CN2CCCCC2)cc1`, the TGI came to 16.8 µM.
